Laboratory results reported in patent US20140199277A1, “Methods of Treatment of Retinal Degeneration Diseases” (priority 2011, published 2014).

Tests used:
[1] = system: neural progenitor cells; conditions: cited from earlier work; for reprogramming of neural precursor cells after cell fusion: periodic activation of the Wnt/β-catenin pathway in ESCs
[2] = system: Nanog-GFP transgene; test: In-vivo reprogramming of retinal neurons after fusion, Nanog-GFP-puro mice; parameters: species or system mouse; conditions: for GFP-positive cells after transplantation of pretreated ESCs: ESCs pretreated before transplantation, NMDA-injured eyes
Procedure: (§1) Mice at the age of 3 months were anaesthetised by injection of ketamine: metomidine (80 mg/kg: 1.0 mg/kg, intraperitoneal (i.p.)). To induce retinal damage, the animals were treated intravitreally with 2 μl of 20 mM N-methyl-D-aspartate (NMDA) (total 40 nmol; Sigma) for 24 h [Timmers et al., Mol Vis 7, 131-137 (2001)]. Control eyes received 2 μl PBS. For the BrdU incorporation assays, the mice received intraperitoneal (i.p.) BrdU administration of 50 mg/kg body weight.
(§2) The stem cells (SCs) were left non-treated or were pretreated with 100 ng/ml Wnt3a or 1 μM BIO, for 24 h, and finally 5×10^5 cells were injected intravitreally into the eyes of the anaesthetised mice. The mice were sacrificed by cervical dislocation, and their eyeballs were enucleated for histological analyses.
(§3) Tissues were fixed by immersion in 4% paraformaldehyde overnight, and then embedded in OCT compound (Tissue-Tek). Horizontal serial sections of 10 μm thickness were processed for immunohistochemistry, and visualisation of Nanog-GFP and Rosa26-YFP fluorescence was performed by fluorescent microscopy.
(§4) Percentages of GFP and YFP positive cells were evaluated counterstaining the tissue sections with DAPI (Vectashield, Vector Laboratories, Burlingame, Calif., USA), and they were photographed using either an Axioplan microscope (Zeiss) or a Leica laser confocal microscope system.
(§5) The numbers of immunoreactive or of Nanog-GFP- and -YFP-positive cells within three different retinal areas (40× field) were counted in individual sections. A total of ten serial sections were examined for each eye, from at least three different mice. For statistical analysis, the data were expressed as means±SEM, as pooled from at least three independent experiments, each carried out in duplicate. The experiments were performed using at least three different mice. Differences were examined using the unpaired Student t-test.

[3] = system: retinal neurons; test: Damage-dependent cell fusion in vivo after intravitreal transplantation in R26Y eyes; parameters: species or system mouse; conditions: NMDA-damaged eyes of R26Y mice
Procedure: as §1
Retinal stem and progenitor cells (RSPCs) were isolated from the ciliary margin of adult Cre mice as previously described [Sanges et al., Proc Natl Acad Sci USA 103, 17366-17371 (2006)]. […]
as §3, §4
The numbers of immunoreactive or of Nanog-GFP- and -YFP-positive cells within three different retinal areas (40× field) were counted in individual sections. […]

[4] = system: Nestin-CRE transgene; test: Endogenous BM cell fusion-mediated reprogramming induced by intravitreal BIO in Nestin-Cre mice with BM^R26Y; assay type: in vivo, mouse; conditions: 24 h
Procedure: BM transplantation was conducted as previously reported with minor modifications. The BM of 4- to 6-week-old R26Y or Nestin-Cre recipient mice was reconstituted with BM cells from the tibias and femurs of RFP/CRE or R26Y transgenic mice respectively. BM cells (1×10^7 cells) were injected intravenously into the recipients 3 hours after irradiation with γ-rays (9 Gy). The eyes of the recipients were protected with lead shields to prevent radiation-induced damage (radiation retinopathy). Four weeks after transplantation, the peripheral blood of chimeric mice was extracted from the tail vein, and the reconstituted BM was assessed.
For fluoresceine immunostaining, the primary antibodies used were: anti-Nanog (1:200, R&D), anti-Oct4 (1:100, AbCam), anti-Nestin (1:300, Abcam), anti-GATA4 (1:500, Abcam), anti-Otx2 (1:200, Abcam), anti-Noggin (1:200, Abcam), anti-Hand1 (1:400, Abcam), anti-Tuj-1 (1:100, Abcam), anti-Thy1.1 (1:100, Abcam), anti-syntaxin (1:50, Sigma), anti-glutamine synthetase (Sigma, 1:100) anti-Annexin V (1:200, Abcam), anti-Ki67 (Sigma, 1.100) and anti-BrdU (1:300, Sigma). The secondary antibodies used were: anti-mouse IgG and anti-rabbit IgG antibodies conjugated with Alexa Fluor 488, Alexa Fluor 546 or Alexa Fluor 633 (1:1000; Molecular Probes, Invitrogen).
as §5

[5] = system: β-catenin signalling; test: Activation of β-catenin signalling in treated HSPCs (RT-PCR of Axin2, nuclear translocation of β-catenin); assay type: cell-based, mouse
From the text: According to Treatment A, activation of the Wnt/β-catenin signalling pathway is, at least partially, provided by the implanted cells having their Wnt/β-catenin signalling pathway activated and being selected from the group consisting of a hematopoietic stem cell, a progenitor cell, and a mesenchymal stem cell. The subject to be treated may also have activated the Wnt/β-catenin signalling pathway after retinal damage or injury. In general, the Wnt/β-catenin signalling pathway is activated when the target genes are transcribed; by illustrative, activation of the Wnt/β-catenin signalling pathway may be confirmed by conventional techniques, for example, by analyzing the expression of the target genes, e.g., Axin2, by means known by the skilled person in the art to analyze the expression of genes, such as, for example, RT-PCR (reverse transcription-polymerase chain reaction), or by detection of β-catenin translocation in the nuclei of the cells by conventional techniques, such as, for example, by immunostaining, or by detecting the phosphorylation of Dishevelled or the phosphorylation of the LRP tail, etc.
The stem cells (SCs) were left non-treated or were pretreated with 100 ng/ml Wnt3a or 1 μM BIO, for 24 h, and finally 5×10^5 cells were injected intravitreally into the eyes of the anaesthetised mice. […]

[6] = system: human GSK-3; conditions: cited from earlier work
[7] = system: Nestin-CRE transgene; test: In-vivo reprogramming of retinal neurons after fusion, Nestin-CRE mice; parameters: species or system mouse; conditions: injected immediately after NMDA, HSPCs after 24 h
Procedure: as §1, §2, §3
Percentages of GFP and YFP positive cells were evaluated counterstaining the tissue sections with DAPI (Vectashield, Vector Laboratories, Burlingame, Calif., USA), and they were photographed using either an Axioplan microscope (Zeiss) or a Leica laser confocal microscope system. […]

[8] = system: β-catenin; test: β-catenin immunofluorescence in retinal sections of NMDA-treated eyes; assay type: in vivo, mouse; conditions: NMDA-damaged eyes
Procedure: FIG. 12. Analysis of reprogramming of retinal neurons after fusion. (A) Immunofluorescence staining using an anti β-catenin antibody (red) was performed on sections from eyes treated either with NMDA, with both NMDA and DKK1 or untreated as control. The expression and nuclear accumulation of β-catenin in retinal cells detected in NMDA-damaged eyes (red arrows) is reduced after treatment with DKK1. Scale bar: 20 μm. (B) Schematic representation of in-vivo reprogramming experimental plan. Red-labelled SPCs either non-treated (control), or treated for 24 h with BIO were injected in NMDA-damaged or undamaged eyes of Nanog-GFP-Puro recipient mice. The expression of GFP in reprogrammed hybrids was analysed one day after injection. […] Nuclei were counterstained with DAPI.
To assess the role of activation of the endogenous Wnt/β-catenin signalling pathway in the reprogramming of retinal neurons, in both of these mouse models, DKK1 was also injected immediately after NMDA injection; DKK1 is an inhibitor of the Wnt/β-catenin pathway [Osakada et al. (2007) cited supra, FIG. 12A]. HSPCs were transplanted after 24 h, and mice were sacrificed 24 h later.

## O=C1Nc2cc(Br)ccc2/C1=C1/Nc2ccccc2/C1=N\O [BIO, 6-bromoindirubin-3'-oxime]
[1]; in vitro
  fusion efficiency of ESCs with neural progenitor cells: does not increase the fusion efficiency
[1]
  reprogramming of neural precursor cells after cell fusion: strongly enhances
[2]
  GFP-positive cells after transplantation of pretreated ESCs: strikingly increased
[3]
  effect of pre-treatment on fusion efficiency of HSPCs, ESCs or RSPCs: did not enhance the fusion efficiency
[4]; NMDA+BIO intravitreal
  YFP-positive hybrids Annexin-V positive: 1%
  YFP-positive hybrids positive for Ki67: About 8%
  YFP-positive hybrids positive for Nanog: 70%
  YFP-positive hybrids positive for Oct4: 50%
[4]; intravitreal with NMDA
  YFP-positive cells in the gcl and inl: observed
[5]
  β-catenin signalling in HSPCs: activates β-catenin signalling

## Nc1nc(NCCNc2ncc(-n3ccnc3)c(-c3ccc(Cl)cc3Cl)n2)ccc1[N+](=O)[O-] [CHIR 98014, 6-pyridinediamine, N6-[2-[[4-(2,4-dichlorophenyl)-5-(1H-imidazol-1-yl)-2-pyrimidinyl]amino]ethyl]-3-nitro-]
[6]
  inhibition of human GSK-3: potently

## Cc1c[nH]c(-c2cnc(NCCNc3ccc(C#N)cn3)nc2-c2ccc(Cl)cc2Cl)n1 [CHIR 99021, 6-{2-[4-(2,4-dichloro-phenyl)-5-(4-methyl-1H-imidazol-2-yl)-pyrimidin-2-ylamino]-ethylamino}-nicotinonitrile]
[6]
  inhibition of human GSK-3: potently

B1: Wnt3a: Wnt protein isoform, Wnt/β-catenin signalling pathway activator (protein, UniProt P56704 19-352, looked up)
Protein Wnt-3a: SYPIWWSLAVGPQYSSLGSQPILCASIPGLVPKQLRFCRNYVEIMPSVAEGIKIGIQECQHQFRGRRWNCTTVHDSLAIFGPVLDKATRESAFVHAIASAGVAFAVTRSCAEGTAAICGCSSRHQGSPGKGWKWGGCSEDIEFGGMVSREFADARENRPDARSAMNRHNNEAGRQAIASHMHLKCKCHGLSGSCEVKTCWWSQPDFRAIGDFLKDKYDSASEMVVEKHRESRGWVETLRPRYTYFKVPTERDLVYYEASPNFCEPNPETGSFGTRDRTCNVSSHGIDGCDLLCCGRGHNARAERRREKCRCVFHWCCYVSCQECTRVYDVHTCK
[1]
  reprogramming of neural precursor cells after cell fusion: strongly enhances
[2]
  GFP-positive cells after transplantation of pretreated ESCs: strikingly increased

B2: DKK1: an inhibitor of the Wnt/β-catenin pathway (protein, UniProt O94907 32-266, looked up)
Dickkopf-related protein 1: TLNSVLNSNAIKNLPPPLGGAAGHPGSAVSAAPGILYPGGNKYQTIDNYQPYPCAEDEECGTDEYCASPTRGGDAGVQICLACRKRRKRCMRHAMCCPGNYCKNGICVSSDQNHFRGEIEETITESFGNDHSTLDGYSRRTTLSSKMYHTKGQEGSVCLRSSDCASGLCCARHFWSKICKPVLKEGQVCTKHRRKGSHGLEIFQRCYCGEGLSCRIQKDHHQASNSSRLHTCQRH
[7]
  reprogramming of neuron-HSPC hybrids: almost completely blocked
[2]; injected immediately after NMDA, HSPCs after 24 h, Nanog-GFP-puro mice
  reprogramming of neuron-HSPC hybrids: almost completely blocked
[8]
  expression and nuclear accumulation of β-catenin in retinal cells: reduced
